Assay results: ChEMBL document CHEMBL1201862, “PubChem BioAssay data set” (2004)
The source made the active and inactive calls.

How the values were obtained:
[1] = Luminescence Cell-Based Dose Response HTS to Identify Activators of Luciferase Translation or Activity in H4 […] Cells. [Related pubchem assays: 1829 (Project Summary), 1814 (Primary HTS)]; format: functional
[2] = target: Intestinal-type alkaline phosphatase (Homo sapiens, UniProt P09923); assay: Dose Response confirmation of uHTS hits from a small molecule inhibitors of human intestinal alkaline phosphatase via a luminescent assay. [Related pubchem assays (depositor defined):AID2544, AID2574]; format: functional
Sequence of Intestinal-type alkaline phosphatase (P09923 whole entry): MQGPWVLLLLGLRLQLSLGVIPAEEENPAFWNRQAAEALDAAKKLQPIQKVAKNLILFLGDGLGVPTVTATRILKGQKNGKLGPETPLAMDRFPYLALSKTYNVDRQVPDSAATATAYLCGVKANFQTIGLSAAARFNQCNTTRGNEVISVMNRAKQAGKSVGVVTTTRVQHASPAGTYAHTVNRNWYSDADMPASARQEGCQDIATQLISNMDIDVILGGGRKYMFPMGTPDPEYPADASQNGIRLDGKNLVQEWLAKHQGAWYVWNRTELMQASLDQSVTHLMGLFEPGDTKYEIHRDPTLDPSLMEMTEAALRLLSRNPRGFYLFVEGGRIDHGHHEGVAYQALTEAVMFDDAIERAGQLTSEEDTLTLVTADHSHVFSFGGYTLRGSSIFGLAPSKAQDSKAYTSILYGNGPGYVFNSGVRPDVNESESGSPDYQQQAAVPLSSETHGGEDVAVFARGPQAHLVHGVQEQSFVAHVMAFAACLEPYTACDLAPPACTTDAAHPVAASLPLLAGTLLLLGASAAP

Hexokinase HKDC1 = target: T1, Hexokinase HKDC1 (Homo sapiens, UniProt Q2TB90); assay: HKDC1 hexokinase inhibitors, dose response, biochemical, W721R variant (AID 504729); format: functional
T1 sequence (Q2TB90 whole entry): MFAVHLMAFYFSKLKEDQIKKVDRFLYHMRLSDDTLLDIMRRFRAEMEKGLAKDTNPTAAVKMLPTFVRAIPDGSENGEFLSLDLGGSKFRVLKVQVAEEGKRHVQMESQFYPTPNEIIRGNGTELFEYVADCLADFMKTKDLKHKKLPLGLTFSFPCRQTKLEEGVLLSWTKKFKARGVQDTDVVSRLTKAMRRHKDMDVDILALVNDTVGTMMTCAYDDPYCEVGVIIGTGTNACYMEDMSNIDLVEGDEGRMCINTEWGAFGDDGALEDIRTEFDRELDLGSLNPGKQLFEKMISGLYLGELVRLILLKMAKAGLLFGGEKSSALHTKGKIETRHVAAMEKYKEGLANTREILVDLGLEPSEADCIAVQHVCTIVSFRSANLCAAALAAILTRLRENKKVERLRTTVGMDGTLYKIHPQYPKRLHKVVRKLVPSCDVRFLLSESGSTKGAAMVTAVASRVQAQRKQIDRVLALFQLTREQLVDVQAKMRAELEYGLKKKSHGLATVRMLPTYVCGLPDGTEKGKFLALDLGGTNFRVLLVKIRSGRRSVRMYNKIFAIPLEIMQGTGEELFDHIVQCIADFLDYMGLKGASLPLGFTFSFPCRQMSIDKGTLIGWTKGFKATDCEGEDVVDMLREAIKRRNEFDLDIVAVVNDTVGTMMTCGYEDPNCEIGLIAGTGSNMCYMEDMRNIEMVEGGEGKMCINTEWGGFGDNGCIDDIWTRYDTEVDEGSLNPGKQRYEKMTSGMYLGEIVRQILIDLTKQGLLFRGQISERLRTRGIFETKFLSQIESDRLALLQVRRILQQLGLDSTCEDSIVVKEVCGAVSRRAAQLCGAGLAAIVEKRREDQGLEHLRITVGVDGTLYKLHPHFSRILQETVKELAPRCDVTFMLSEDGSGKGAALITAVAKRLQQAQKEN

[3] = cytotoxicity toward NIH3T3 fibroblasts, dose response, counter-screen, cell-based, ATP luminescence, mouse fibroblasts (AID 2010); format: functional;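 also: cells exposed to compound for about 90 hours before reading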
INS1 = assay: beta cell apoptosis inhibitors, cytokine rescue, dose response, luminescence, retest (AID 449756); format: functional, cell-based; settings: Rattus norvegicus, INS1;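 also: cell death triggered by IL-1 beta plus TNF-alpha plus IFN-gamma mixture; protective hits raise ATP signal compared with cytokine alone wells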
[4] = inhibitors of intracellular T. cruzi replication, confirmation, NIH3T3 host cells, beta-gal luminescence (AID 2044); format: functional, cell-based;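 also: intracellular parasites grown in NIH/3T3 mouse fibroblasts as host cells; luminescent beta-galactosidase reporter signal from transgenic T. cruzi replicating inside host cells; inhibitors lower the luminescence signal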
[5] = target: G-protein coupled receptor 55 (Homo sapiens, UniProt Q9Y2T6); assay: GPR55 antagonists blocking LPI-driven arrestin recruitment, primary screen, imaging, U2OS, beta-arrestin-GFP, LPI agonist (AID 2013); format: functional;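 also: antagonist potency measured as reduced agonist-driven arrestin aggregation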
Sequence of G-protein coupled receptor 55 (Q9Y2T6 whole entry): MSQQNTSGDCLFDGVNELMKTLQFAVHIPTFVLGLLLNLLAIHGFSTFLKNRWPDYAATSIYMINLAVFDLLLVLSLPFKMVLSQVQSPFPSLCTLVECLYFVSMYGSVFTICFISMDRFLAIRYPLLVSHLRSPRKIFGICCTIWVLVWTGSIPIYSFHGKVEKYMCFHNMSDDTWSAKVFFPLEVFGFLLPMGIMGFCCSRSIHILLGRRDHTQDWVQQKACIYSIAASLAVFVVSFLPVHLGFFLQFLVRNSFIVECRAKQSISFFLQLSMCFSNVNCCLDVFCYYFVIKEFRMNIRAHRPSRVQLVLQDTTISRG

[6] = target: Voltage-dependent T-type calcium channel subunit alpha-1H (Homo sapiens, UniProt O95180); format: functional;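 also: channel activity triggered by adding a high calcium stimulation buffer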
Sequence of Voltage-dependent T-type calcium channel subunit alpha-1H (O95180 whole entry): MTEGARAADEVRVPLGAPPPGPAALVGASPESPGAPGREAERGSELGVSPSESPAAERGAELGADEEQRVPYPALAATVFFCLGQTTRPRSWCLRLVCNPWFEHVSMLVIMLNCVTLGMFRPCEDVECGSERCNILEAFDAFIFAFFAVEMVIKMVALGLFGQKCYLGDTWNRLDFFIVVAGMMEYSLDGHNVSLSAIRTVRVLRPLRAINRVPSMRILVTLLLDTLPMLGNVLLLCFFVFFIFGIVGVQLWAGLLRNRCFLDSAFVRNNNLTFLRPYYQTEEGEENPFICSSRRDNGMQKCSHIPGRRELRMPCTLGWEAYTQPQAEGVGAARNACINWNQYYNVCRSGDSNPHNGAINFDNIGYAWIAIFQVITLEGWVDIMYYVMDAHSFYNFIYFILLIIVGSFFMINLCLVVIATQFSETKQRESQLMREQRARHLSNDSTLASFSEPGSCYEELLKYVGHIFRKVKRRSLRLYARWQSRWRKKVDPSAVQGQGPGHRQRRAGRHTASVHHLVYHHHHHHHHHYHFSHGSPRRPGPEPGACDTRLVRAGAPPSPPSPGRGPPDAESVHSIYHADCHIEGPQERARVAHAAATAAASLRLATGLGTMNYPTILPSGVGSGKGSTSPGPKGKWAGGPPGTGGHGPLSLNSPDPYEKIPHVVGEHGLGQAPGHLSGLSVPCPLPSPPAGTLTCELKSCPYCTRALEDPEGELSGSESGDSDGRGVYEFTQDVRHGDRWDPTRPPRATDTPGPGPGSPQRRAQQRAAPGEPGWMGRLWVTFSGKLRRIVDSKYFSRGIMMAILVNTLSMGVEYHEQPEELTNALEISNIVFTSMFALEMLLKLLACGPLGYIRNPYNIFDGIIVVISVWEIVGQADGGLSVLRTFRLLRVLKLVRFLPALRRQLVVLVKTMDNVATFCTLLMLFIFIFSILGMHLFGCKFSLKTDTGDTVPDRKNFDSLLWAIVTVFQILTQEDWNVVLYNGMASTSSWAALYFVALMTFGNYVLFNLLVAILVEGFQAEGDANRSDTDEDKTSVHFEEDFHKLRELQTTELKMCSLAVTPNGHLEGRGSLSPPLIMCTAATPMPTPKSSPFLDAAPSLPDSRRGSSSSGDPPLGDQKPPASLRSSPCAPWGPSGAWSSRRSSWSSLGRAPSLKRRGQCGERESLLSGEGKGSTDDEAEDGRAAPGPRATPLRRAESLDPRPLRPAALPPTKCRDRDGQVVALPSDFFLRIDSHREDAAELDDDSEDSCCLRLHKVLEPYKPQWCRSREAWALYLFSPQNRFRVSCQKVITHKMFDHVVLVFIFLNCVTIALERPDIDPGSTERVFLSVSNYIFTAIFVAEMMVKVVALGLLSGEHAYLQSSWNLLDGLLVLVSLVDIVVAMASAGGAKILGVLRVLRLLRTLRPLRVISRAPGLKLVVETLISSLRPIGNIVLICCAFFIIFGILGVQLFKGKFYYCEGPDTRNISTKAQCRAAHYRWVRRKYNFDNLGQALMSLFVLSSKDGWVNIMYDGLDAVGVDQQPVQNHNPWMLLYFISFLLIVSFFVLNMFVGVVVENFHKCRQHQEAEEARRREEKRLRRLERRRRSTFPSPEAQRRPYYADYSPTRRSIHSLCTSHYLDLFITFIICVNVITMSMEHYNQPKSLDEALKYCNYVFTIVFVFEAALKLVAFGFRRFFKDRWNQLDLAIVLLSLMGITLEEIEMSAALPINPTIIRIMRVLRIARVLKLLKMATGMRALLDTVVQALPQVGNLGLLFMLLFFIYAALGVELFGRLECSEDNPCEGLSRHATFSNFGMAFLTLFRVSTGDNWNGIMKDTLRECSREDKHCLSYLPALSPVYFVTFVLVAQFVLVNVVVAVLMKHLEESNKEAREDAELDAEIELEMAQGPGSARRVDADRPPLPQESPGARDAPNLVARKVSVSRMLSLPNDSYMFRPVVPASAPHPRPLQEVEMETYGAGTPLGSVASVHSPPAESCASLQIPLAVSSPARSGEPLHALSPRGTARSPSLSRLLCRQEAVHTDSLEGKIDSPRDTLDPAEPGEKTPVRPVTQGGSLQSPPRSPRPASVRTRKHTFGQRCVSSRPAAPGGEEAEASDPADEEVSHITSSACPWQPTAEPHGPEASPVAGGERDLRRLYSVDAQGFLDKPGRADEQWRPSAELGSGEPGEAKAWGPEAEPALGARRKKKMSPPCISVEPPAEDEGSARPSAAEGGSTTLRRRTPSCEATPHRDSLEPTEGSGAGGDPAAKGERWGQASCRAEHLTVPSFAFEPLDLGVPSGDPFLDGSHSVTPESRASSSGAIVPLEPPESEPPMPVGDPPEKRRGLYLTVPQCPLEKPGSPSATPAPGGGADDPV

Coagulation factor XII = target: T2, Coagulation factor XII (Homo sapiens, UniProt P00748); assay: FXIIa inhibitor potency, concentration-response, biochemical (AID 716); format: functional
T2 sequence (P00748 whole entry): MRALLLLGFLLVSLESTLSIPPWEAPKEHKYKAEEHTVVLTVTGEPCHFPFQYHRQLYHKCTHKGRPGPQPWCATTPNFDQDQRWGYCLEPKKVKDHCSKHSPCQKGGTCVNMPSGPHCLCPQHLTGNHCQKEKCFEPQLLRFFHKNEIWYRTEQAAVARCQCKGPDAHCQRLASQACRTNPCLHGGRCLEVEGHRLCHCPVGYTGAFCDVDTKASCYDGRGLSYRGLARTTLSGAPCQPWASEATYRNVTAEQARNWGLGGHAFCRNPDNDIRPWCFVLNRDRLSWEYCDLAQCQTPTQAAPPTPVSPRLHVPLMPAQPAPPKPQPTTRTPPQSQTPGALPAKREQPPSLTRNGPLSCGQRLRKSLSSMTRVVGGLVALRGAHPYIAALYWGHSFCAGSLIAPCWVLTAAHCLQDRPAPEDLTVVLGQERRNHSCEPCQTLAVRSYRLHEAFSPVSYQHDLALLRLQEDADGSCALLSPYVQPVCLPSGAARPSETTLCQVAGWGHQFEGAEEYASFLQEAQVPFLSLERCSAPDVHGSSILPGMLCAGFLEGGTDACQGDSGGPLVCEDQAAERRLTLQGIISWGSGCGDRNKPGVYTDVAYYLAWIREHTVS

[7] = Luminescence Cell-Based Dose Retest to Confirm Inhibitors of Cancer Stem Cells. [Related pubchem assays (depositor defined):AID2717, AID2721]; format: functional; settings: Homo sapiens
[8] = target: Lysosomal acid glucosylceramidase (Homo sapiens, UniProt P04062); assay: Dose response cell-based high throughput screening assay to identify enhancers of beta-glucosidase activity. [Related pubchem assays: 784 ]; format: functional
[9] = HepG2 cell cytotoxicity, dose response, cytotoxicity control for non-replicating M. tuberculosis project (AID 489018); format: functional; settings: Mycobacterium tuberculosis
[10] = THP-1 cell cytotoxicity, dose response, cytotoxicity control for non-replicating M. tuberculosis project (AID 489025); format: functional
cells = format: functional
[11] = Luminescence Cell-Based Dose Confirmation HTS to Identify Inhibitors of Platelet Dense Granule Release. [Related pubchem assays: 1663 (Primary HTS), 1678 (Summary of Project)]; format: functional
[12] = target: Luciferin 4-monooxygenase (Photinus pyralis, UniProt P08659); assay: firefly luciferase enzyme inhibitors, dose response, biochemical, luminescence (AID 1891)
SUMO-activating enzyme [13] = target: T3, SUMO-activating enzyme (Homo sapiens, UniProt Q9UBT2); assay: inhibitors of in vitro SUMOylation cascade, primary screen, biochemical, HTRF, uHTS (AID 2006); format: protein-complex assay
T3 sequence (Q9UBE0 whole entry): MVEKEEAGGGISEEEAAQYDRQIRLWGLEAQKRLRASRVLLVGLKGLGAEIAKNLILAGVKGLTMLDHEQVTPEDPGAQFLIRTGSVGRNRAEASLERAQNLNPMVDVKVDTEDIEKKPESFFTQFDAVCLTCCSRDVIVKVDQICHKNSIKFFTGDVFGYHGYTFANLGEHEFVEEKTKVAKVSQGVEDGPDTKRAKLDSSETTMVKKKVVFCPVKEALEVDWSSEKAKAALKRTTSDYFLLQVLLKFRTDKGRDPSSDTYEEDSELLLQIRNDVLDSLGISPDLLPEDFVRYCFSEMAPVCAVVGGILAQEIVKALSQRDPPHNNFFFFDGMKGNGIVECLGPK
T3 sequence (Q9UBT2 whole entry): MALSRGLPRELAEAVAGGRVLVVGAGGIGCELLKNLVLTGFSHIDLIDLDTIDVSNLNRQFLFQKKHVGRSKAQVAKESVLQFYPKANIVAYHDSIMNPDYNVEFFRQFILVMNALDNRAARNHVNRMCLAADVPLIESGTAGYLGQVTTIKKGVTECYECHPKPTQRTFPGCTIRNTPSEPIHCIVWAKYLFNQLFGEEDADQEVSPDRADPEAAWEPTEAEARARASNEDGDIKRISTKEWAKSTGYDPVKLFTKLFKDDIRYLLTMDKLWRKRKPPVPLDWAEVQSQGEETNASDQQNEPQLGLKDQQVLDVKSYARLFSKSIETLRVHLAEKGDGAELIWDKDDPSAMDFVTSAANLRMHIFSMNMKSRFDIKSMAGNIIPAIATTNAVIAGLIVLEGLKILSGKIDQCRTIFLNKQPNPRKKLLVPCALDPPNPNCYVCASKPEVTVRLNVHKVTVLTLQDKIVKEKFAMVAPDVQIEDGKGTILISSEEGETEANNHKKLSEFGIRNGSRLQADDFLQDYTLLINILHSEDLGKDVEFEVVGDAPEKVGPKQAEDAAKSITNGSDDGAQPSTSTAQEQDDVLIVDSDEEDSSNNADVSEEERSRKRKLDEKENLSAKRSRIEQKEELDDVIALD

SUMO-activating enzyme [14] = target: T3, SUMO-activating enzyme; assay: SUMOylation inhibitor hit validation, confirmation, SUMOylation inhibitor project, biochemical, AlphaScreen (AID 2018); format: functional
[15] = system: Streptococcus sp. 'group A'; assay: growth inhibition of control SK(-) GAS strain, dose response, counter-screen for streptokinase expression inhibitor project, luminescence, kanamycin, BacTiterGlo, confirmation (AID 1900); format: functional, organism-based
[16] = ZM109 Env clade C HIV-1 fusion inhibitors, dose response, HeLa effector, CEM target cells, luciferase, cherry-pick (AID 652058); format: functional, cell-based
[17] = inhibitors of HIV Env-driven cell fusion, dose response, cherry-pick (AID 652057); format: functional, cell-based
[18] = Luminescence Cell-Based Dose Response HTS to Identify Inhibitors of 5'UTR Stem-Loop Driven Prion Protein mRNA Translation in H4 Neuroglioblastoma Cells. [Related pubchem assays: 1827 (Project Summary), 1813 (Primary HTS)]; format: functional
[19] = inhibitors of firefly luciferase expression or activity, dose response, H4 neuroglioma cells, luminescence (AID 1990); format: functional, cell-based
[20] = inhibitors of clade B AD8 Env fusion, dose response, cell-based, cherry-pick (AID 652062); format: functional;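 also: luciferase signal from cell-cell fusion driven by HIV-1 clade B AD8 Env; potency is for inhibitors of fusion seen as a drop in luminescence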
[21] = inhibitors of SNCA 5'UTR-driven reporter translation, confirmation, H4 neuroglioma cells, luminescence (AID 1988); format: functional, cell-based
[22] = off-target signal loss in HeLa-CEM21 co-culture – HeLa F-luc CTL cells, cherry-picked, counter-screen for HIV-1 Env fusion inhibitor project, dose response (AID 652040); format: functional, cell-based;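 also: potency for signal decrease marking cytotoxic or nonspecific inhibition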
Streptococcus = assay: Group A Streptococcus viability loss, dose response, counter-screen for streptokinase expression inhibitor project, luminescence, BacTiterGlo (AID 1915); format: functional, organism-based;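 also: potency for reduction of bacterial viability or growth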
[23] = target: T4, Kappa-type opioid receptor (Homo sapiens, UniProt P41145); format: functional
T4 sequence (P41145 whole entry): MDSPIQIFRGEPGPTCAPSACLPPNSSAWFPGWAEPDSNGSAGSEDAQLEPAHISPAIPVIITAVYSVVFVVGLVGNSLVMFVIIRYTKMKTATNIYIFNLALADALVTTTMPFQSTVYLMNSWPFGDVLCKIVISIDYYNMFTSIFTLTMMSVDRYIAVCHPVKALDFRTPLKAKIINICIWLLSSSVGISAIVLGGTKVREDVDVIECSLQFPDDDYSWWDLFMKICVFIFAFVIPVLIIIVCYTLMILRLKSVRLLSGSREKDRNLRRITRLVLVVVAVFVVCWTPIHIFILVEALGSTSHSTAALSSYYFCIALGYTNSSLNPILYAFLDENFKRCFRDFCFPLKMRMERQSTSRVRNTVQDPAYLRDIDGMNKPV

Beta-galactosidase = Beta-galactosidase (Escherichia coli, UniProt Q8VNN2); format: functional
[24] = target: T4, Kappa-type opioid receptor; format: functional; remark: listed apart in the source

CCOC(=O)c1cnc(SCC(=O)c2ccccc2)nc1N
EC50 [1]: 0.195 µM (active) | IC50 [2]: > 100 µM (inactive)

O=C(O)c1ccc2ncsc2c1
IC50 (Hexokinase HKDC1): 7.69 µM (active)

COc1ccc(CNCCC(c2ccccc2)c2ccc3c(c2)OCO3)cc1 (stereo unspecified)
EC50 [3]: > 60 µM (not active) | AC50 (INS1): 9.28 µM (active) | EC50 [4]: 3.27 µM (active) | IC50 [5]: 0.965 µM (active)

Cc1ccc(NC(=O)c2cc(S(=O)(=O)N3CCCCC3)cs2)cc1
EC50 [6]: 10.3 µM (active)

c1ccc(OCCSc2nc3ccccc3[nH]2)cc1
EC50 [6]: 5.96 µM (active)

COC(=O)C1=CN(C(C)C)C=C(C(=O)OC)C1c1cc2c(cc1Br)OCO2
IC50 [5]: 4.97 µM (active)

O=C(CN1C(=O)C2C3C=CC(C3)C2C1=O)NCCC1=CCCCC1 (stereo unspecified)
IC50 (Coagulation factor XII): > 50 µM (inactive)

N#CCc1ccc(NC(=O)Nc2cccc(Cl)c2)cc1
AC50 [7]: 5.19 µM (active) | EC50 [8]: > 10 µM (not active)

Clc1c(OCCCn2ccnc2)ccc2ccccc12
EC50 [3]: > 60 µM (not active) | EC50 [4]: 0.708 µM (active) | CC50 [9]: > 20 µM (active) | CC50 [10]: 37.1 µM (active) | IC50 (cells): 9.76 µM (active)

COC(=O)c1ccc(C(=O)OC)c(NC(=O)Nc2ccc3c(c2)OCO3)c1
EC50 [11]: > 112 µM (not active) | IC50 [2]: > 100 µM (inactive) | EC50 [12]: > 112 µM (not active)

CCCCCCCn1c(NC(=O)CC)nc2ccccc21
IC50 (SUMO-activating enzyme [13]): 7.82 µM (active) | IC50 (SUMO-activating enzyme [14]): 1.62 µM (active) | EC50 [15]: 2.13 µM (active) | AC50 [16]: 47.3 µM (active) | AC50 [17]: 34.3 µM (active) | EC50 [18]: 13.8 µM (active) | EC50 [19]: 11.4 µM (active) | AC50 [20]: 39.4 µM (active) | EC50 [21]: 9.8 µM (active) | AC50 [22]: > 70 µM (inactive) | EC50 (Streptococcus): 10.1 µM (active)

Cc1noc(C)c1C(=O)NC(C)c1ccc2c(c1)OCO2 (stereo unspecified)
IC50 (Coagulation factor XII): > 50 µM (inactive)

Fc1ccccc1/C=N/Nc1nc(-c2ccccn2)nc2ccccc12
EC50 [3]: 54.9 µM (active) | IC50 [23]: 6.19 µM (active) | AC50 (INS1): 0.984 µM (active) | EC50 [4]: 0.357 µM (active) | EC50 [18]: 1.03 µM (active) | EC50 (Beta-galactosidase): > 31.5 µM (inactive) | IC50 [24]: > 32 µM | EC50 [21]: 0.456 µM (active)
